Laboratory results as given in patent publication US4335108A, “Paulomycin A and B and preparation thereof” (The Upjohn Company, priority 1980, dated 1982).
Values after ≈ are worked out from the molar mass of the structure shown.

Experiments:
S. aureus 6685 = test: Antibacterial microplate agar assay (MIC); type: cell-based, Staphylococcus aureus; details: PYG agar, pH 6, 24 hours, 28° to 37° C.
Description: (§1) The antibacterial assay is a standard microplate agar assay using PYG agar, pH 6. PYG agar consists of the following ingredients:
(§2) The MIC is determined by standard methods. The inocula are overnight cultures of the test organisms, diluted so that the final population contains approximately 10^5 cells/ml. The agar plates are incubated at 28° to 37° C. for 24 hours. The lowest antibiotic concentration which allows no growth=MIC or minimum inhibitory concentration.
as §2, with “Assay. The antibacterial assay is a standard microplate agar assay using PYG agar, pH 6. The MIC” for “The MIC”

S. aureus 6690 = test: Antibacterial microplate agar assay (MIC); type: cell-based, Staphylococcus aureus; details: PYG agar, pH 6, 24 hours, 28° to 37° C.
Description: as §1, §2
as §2, with “Assay. The antibacterial assay is a standard microplate agar assay using PYG agar, pH 6. The MIC” for “The MIC”

S. aureus UC 76 = test: Antibacterial microplate agar assay (MIC); type: cell-based, Staphylococcus aureus; details: PYG agar, pH 6, 24 hours, 28° to 37° C.
Description: as §1, §2
as §2, with “Assay. The antibacterial assay is a standard microplate agar assay using PYG agar, pH 6. The MIC” for “The MIC”

S. faecalis 694 = test: Antibacterial microplate agar assay (MIC); type: cell-based, Streptococcus faecalis; details: PYG agar, pH 6, 24 hours, 28° to 37° C.
Description: as §1, §2
as §2, with “Assay. The antibacterial assay is a standard microplate agar assay using PYG agar, pH 6. The MIC” for “The MIC”

E. cloacae 6783 = test: Antibacterial microplate agar assay (MIC); type: cell-based; details: PYG agar, pH 6, 24 hours, 28° to 37° C.
Description: as §1, §2
as §2, with “Assay. The antibacterial assay is a standard microplate agar assay using PYG agar, pH 6. The MIC” for “The MIC”

E. coli 45 = test: Antibacterial microplate agar assay (MIC); type: cell-based; details: PYG agar, pH 6, 24 hours, 28° to 37° C.
Description: as §1, §2
as §2, with “Assay. The antibacterial assay is a standard microplate agar assay using PYG agar, pH 6. The MIC” for “The MIC”

Enterococcus sp. 701 = test: Antibacterial microplate agar assay (MIC); type: cell-based; details: PYG agar, pH 6, 24 hours, 28° to 37° C.
Description: as §1, §2
as §2, with “Assay. The antibacterial assay is a standard microplate agar assay using PYG agar, pH 6. The MIC” for “The MIC”

K. pneumoniae 58 = test: Antibacterial microplate agar assay (MIC); type: cell-based; details: PYG agar, pH 6, 24 hours, 28° to 37° C.
Description: as §1, §2
as §2, with “Assay. The antibacterial assay is a standard microplate agar assay using PYG agar, pH 6. The MIC” for “The MIC”

P. stuartii 6570 = test: Antibacterial microplate agar assay (MIC); type: cell-based; details: PYG agar, pH 6, 24 hours, 28° to 37° C.
Description: as §1, §2
as §2, with “Assay. The antibacterial assay is a standard microplate agar assay using PYG agar, pH 6. The MIC” for “The MIC”

Ps. aeruginosa 95 = test: Antibacterial microplate agar assay (MIC); type: cell-based; details: PYG agar, pH 6, 24 hours, 28° to 37° C.
Description: as §1, §2
as §2, with “Assay. The antibacterial assay is a standard microplate agar assay using PYG agar, pH 6. The MIC” for “The MIC”

S. flexneri 143 = test: Antibacterial microplate agar assay (MIC); type: cell-based; details: PYG agar, pH 6, 24 hours, 28° to 37° C.
Description: as §1, §2
as §2, with “Assay. The antibacterial assay is a standard microplate agar assay using PYG agar, pH 6. The MIC” for “The MIC”

S. marcescens 131 = test: Antibacterial microplate agar assay (MIC); type: cell-based; details: PYG agar, pH 6, 24 hours, 28° to 37° C.
Description: as §1, §2
as §2, with “Assay. The antibacterial assay is a standard microplate agar assay using PYG agar, pH 6. The MIC” for “The MIC”

S. schottmuelleri 126 = test: Antibacterial microplate agar assay (MIC); type: cell-based; details: PYG agar, pH 6, 24 hours, 28° to 37° C.
Description: as §1, §2
as §2, with “Assay. The antibacterial assay is a standard microplate agar assay using PYG agar, pH 6. The MIC” for “The MIC”

Gram-positive bacteria = test: Antibacterial activity against Gram-positive bacteria; type: cell-based
Description: as §1, §2
as §2, with “Assay. The antibacterial assay is a standard microplate agar assay using PYG agar, pH 6. The MIC” for “The MIC”

L-1210 = test: Antitumor (in vitro) activity; type: cell-based; details: L-1210, in vitro
[1] = 60% aq. ethanol

Compound: C/C=C(\N=C=S)C(=O)O[C@H]1[C@@H](O[C@H]2C[C@H](OC)[C@@](O)([C@H](C)OC(=O)C(C)C)[C@H](C)O2)[C@@H](O)[C@H]([C@@]2(O)CC(=O)C(=N)C(C(=O)O)=C2O)O[C@@H]1COC(C)=O [Paulomycin B]
- Minimum Inhibitory Concentration (S. aureus 6685): 0.50 µg/mL
- Minimum Inhibitory Concentration (S. aureus 6690): 2.0 µg/mL
- Minimum Inhibitory Concentration (S. aureus UC 76): 0.50 µg/mL
- Minimum Inhibitory Concentration (S. faecalis 694): 125 µg/mL
- Minimum Inhibitory Concentration (E. cloacae 6783): 500 µg/mL
- Minimum Inhibitory Concentration (E. coli 45): 250 µg/mL
- Minimum Inhibitory Concentration (Enterococcus sp. 701): 31.2 µg/mL
- Minimum Inhibitory Concentration (K. pneumoniae 58): 250 µg/mL
- Minimum Inhibitory Concentration (P. stuartii 6570): 250 µg/mL
- Minimum Inhibitory Concentration (Ps. aeruginosa 95): 250 µg/mL
- Minimum Inhibitory Concentration (S. flexneri 143): 250 µg/mL
- Minimum Inhibitory Concentration (S. marcescens 131): 250 µg/mL
- Minimum Inhibitory Concentration (S. schottmuelleri 126): 500 µg/mL
- adversely affecting the growth of Gram-positive bacteria (Gram-positive bacteria; for example Bacillus subtilis, Staphylococcus aureus, Streptococcus pyogenes and Streptococcus faecalis): adversely affecting the growth of Gram-positive bacteria
- activity against various Gram-positive bacteria (Gram-positive bacteria; in words): active against various Gram-positive bacteria
- ID50 (L-1210): 8.6 µg/mL (≈ 11.1 µM)
- ID90 (L-1210): 21 µg/mL (≈ 27.2 µM)
- pKa [1]: 7.4
